# Source: ChEMBL document CHEMBL2429758, “3-aroylmethylene-2,3,6,7-tetrahydro-1H-pyrazino[2,1-a]isoquinolin-4(11bH)-ones as potent Nrf2/ARE inducers in human cancer cells and AOM-DSS treated mice” (J Med Chem, 2013)
# Calls of active or inactive are those of the source. No cut-off for these calls is given here.
# Tests used:
# Mus musculus [1] = assay: Toxicity in azoxymethane dextran sodium sulfate C57BL/6 mouse model assessed as sign of toxicity at 50 mg/kg/day treated with food measured after 130 days; assay type: organism-based; conditions: in vivo, 3120 h
# Mus musculus [2] = assay: Toxicity in azoxymethane dextran sodium sulfate C57BL/6 mouse model assessed as change body weight at 50 mg/kg/day treated with food measured after 130 days; assay type: organism-based; conditions: in vivo, 3120 h
# Mus musculus [3] = assay: Antiinflammatory activity in azoxymethane dextran sodium sulfate C57BL/6 mouse model assessed as reduction of IL-6 expression at 50 mg/kg/day treated with food measured after 130 days by immunohistochemical analysis; assay type: functional, organism-based
# Mus musculus [4] = assay: Antiinflammatory activity in azoxymethane dextran sodium sulfate C57BL/6 mouse model assessed as reduction of IL-1beta expression at 50 mg/kg/day treated with food measured after 130 days by immunohistochemical analysis; assay type: functional, organism-based
# Mus musculus [5] = assay: Chemopreventive activity in azoxymethane dextran sodium sulfate C57BL/6 mouse model assessed as reduction of developed dysplasia at 50 mg/kg/day treated with food measured after 130 days by hematoxylin and eosin staining; assay type: functional, organism-based
# Mus musculus [6] = assay: Chemopreventive activity in azoxymethane dextran sodium sulfate C57BL/6 mouse model assessed as increase of lymphocyte ratio at 50 mg/kg/day treated with food measured after 130 days (reference value: 87.75 +/- 2.16%); assay type: functional
# Mus musculus [7] = assay: Chemopreventive activity in azoxymethane dextran sodium sulfate C57BL/6 mouse model assessed as reduction of neutrophils ratio at 50 mg/kg/day treated with food measured after 130 days (reference value: 12.73 +/- 1.65%); assay type: functional; design: scale not given: the % may be the effect or the level left
# Mus musculus [8] = assay: Chemopreventive activity in azoxymethane dextran sodium sulfate C57BL/6 mouse model assessed as increase of WBC level at 50 mg/kg/day treated with food measured after 130 days (reference value: 5.33 +/- 1.34 10^9/L); assay type: functional
# Mus musculus [9] = assay: Chemopreventive activity in azoxymethane dextran sodium sulfate C57BL/6 mouse model assessed as reduction of length of colon at 50 mg/kg/day treated with food measured after 130 days (reference value: 5.62 +/- 0.69 centimeter); assay type: functional
# Mus musculus [10] = assay: Chemopreventive activity in azoxymethane dextran sodium sulfate C57BL/6 mouse model assessed as reduction of tumor burden at 50 mg/kg/day treated with food measured after 130 days; assay type: functional, organism-based
# Mus musculus [11] = assay: Chemopreventive activity in azoxymethane dextran sodium sulfate C57BL/6 mouse model assessed as reduction of average size of tumor at 50 mg/kg/day treated with food measured after 130 days; assay type: functional
# Mus musculus [12] = assay: Chemopreventive activity in azoxymethane dextran sodium sulfate C57BL/6 mouse model assessed as reduction of multiplicity of tumor at 50 mg/kg/day treated with food measured after 130 days; assay type: functional, organism-based
# Mus musculus [13] = assay: Chemopreventive activity in azoxymethane dextran sodium sulfate C57BL/6 mouse model assessed as reduction of tumor incidence at 50 mg/kg/day treated with food measured after 130 days; assay type: functional; design: scale not given: the % may be the effect or the level left
# [14] = biological target: T1, Nuclear factor erythroid 2-related factor 2 (Homo sapiens) (UniProt Q16236); assay: Induction of Nrf2 nuclear translocation in human HCT116 cells at 10 uM by Western blot analysis; assay type: cell-based; conditions: HCT-116
# T1 sequence (whole entry): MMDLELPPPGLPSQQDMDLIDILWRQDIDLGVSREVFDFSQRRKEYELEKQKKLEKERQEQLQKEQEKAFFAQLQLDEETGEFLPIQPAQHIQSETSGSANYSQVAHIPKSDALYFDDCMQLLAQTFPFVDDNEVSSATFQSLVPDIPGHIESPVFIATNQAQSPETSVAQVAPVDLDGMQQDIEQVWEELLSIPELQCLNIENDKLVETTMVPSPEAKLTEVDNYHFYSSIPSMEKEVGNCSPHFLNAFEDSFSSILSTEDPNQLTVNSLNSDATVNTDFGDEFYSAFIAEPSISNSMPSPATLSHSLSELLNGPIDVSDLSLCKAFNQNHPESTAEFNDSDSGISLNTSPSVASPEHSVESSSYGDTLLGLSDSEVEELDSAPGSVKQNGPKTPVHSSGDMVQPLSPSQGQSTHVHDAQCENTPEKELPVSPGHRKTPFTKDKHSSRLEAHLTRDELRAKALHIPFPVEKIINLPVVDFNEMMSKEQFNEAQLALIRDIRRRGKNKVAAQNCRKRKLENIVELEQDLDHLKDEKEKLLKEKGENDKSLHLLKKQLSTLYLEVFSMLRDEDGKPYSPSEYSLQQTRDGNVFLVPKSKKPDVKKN
# HCT-116 [15] = assay: Induction of NQO1 expression in human HCT116 cells up to 24 hrs by Western blot analysis; assay type: functional, cell-based
# HCT-116 [16] = assay: Induction of HO-1 expression in human HCT116 cells up to 8 hrs by Western blot analysis; assay type: functional, cell-based
# HCT-116 [17] = assay: Induction of NQO1 expression in human HCT116 cells at 10 uM by Western blot analysis; assay type: functional, cell-based; conditions: TDE = time-dependent effect
# HCT-116 [18] = assay: Induction of HO-1 expression in human HCT116 cells at 10 uM by Western blot analysis; assay type: functional, cell-based; conditions: TDE = time-dependent effect
# [19] = biological target: T1, Nuclear factor erythroid 2-related factor 2 (Homo sapiens); assay: Induction of Nrf2-mediated ARE activity in human HepG2-ARE-C8 cells after 12 hrs by luciferase reporter gene assay; assay type: cell-based
# [20] = biological target: T1, Nuclear factor erythroid 2-related factor 2 (Homo sapiens); assay: Induction of Nrf2-mediated ARE activity in human HepG2-ARE-C8 cells at 10 uM after 12 hrs by luciferase reporter gene assay relative to control; assay type: cell-based
# [21] = biological target: T1, Nuclear factor erythroid 2-related factor 2 (Homo sapiens); assay: Induction of Nrf2-mediated ARE activity in human HepG2-ARE-C8 cells at 5 uM after 12 hrs by luciferase reporter gene assay relative to control; assay type: cell-based
# [22] = biological target: T1, Nuclear factor erythroid 2-related factor 2 (Homo sapiens); assay: Induction of Nrf2-mediated ARE activity in human HepG2-ARE-C8 cells at 1 uM after 12 hrs by luciferase reporter gene assay relative to control; assay type: cell-based
# [23] = biological target: T1, Nuclear factor erythroid 2-related factor 2 (Homo sapiens); assay: Induction of Nrf2-mediated ARE activity in human HepG2-ARE-C8 cells at 0.1 uM after 12 hrs by luciferase reporter gene assay relative to control; assay type: cell-based
# [24] = biological target: T1, Nuclear factor erythroid 2-related factor 2 (Homo sapiens); assay: Induction of Nrf2-mediated ARE activity in human HepG2-ARE-C8 cells at 0.01 uM after 12 hrs by luciferase reporter gene assay relative to control; assay type: cell-based
# Mus musculus [25] = assay: Chemopreventive activity in azoxymethane dextran sodium sulfate C57BL/6 mouse model assessed as induction of Nrf2 nuclear translocation at 50 mg/kg/day treated with food measured after 130 days immunofluorescence analysis; assay type: functional, organism-based
# [26] = biological target: T1, Nuclear factor erythroid 2-related factor 2 (Homo sapiens); assay: Induction of Nrf2-mediated ARE activity in human HepG2-ARE-C8 cells at 20 uM after 12 hrs by luciferase reporter gene assay relative to control; assay type: cell-based
# [27] = biological target: T1, Nuclear factor erythroid 2-related factor 2 (Homo sapiens); assay: Induction of Nrf2-mediated ARE activity in human HepG2-ARE-C8 cells at 80 uM after 12 hrs by luciferase reporter gene assay relative to control; assay type: cell-based
# [28] = biological target: T1, Nuclear factor erythroid 2-related factor 2 (Homo sapiens); assay: Induction of Nrf2-mediated ARE activity in human HepG2-ARE-C8 cells at 40 uM after 12 hrs by luciferase reporter gene assay relative to control; assay type: cell-based
Structure (SMILES),Activity (HCT-116 [15]),Activity (HCT-116 [16]),fold change (FC) [20],fold change (FC) [21],fold change (FC) [22],fold change (FC) [23],fold change (FC) [24],fold change (FC) [26],further results
O=C(/C=C1\NCC2c3ccccc3CCN2C1=O)c1ccccc1 (stereo unspecified),Dose-dependent effect,Dose-dependent effect,26.9,18.9,9.51,5.44,2,,Activity (Mus musculus [1]): Non-toxic; Activity (Mus musculus [2]): Non-toxic; inhibition (Mus musculus [3]): Active; inhibition (Mus musculus [4]): Active; Activity (Mus musculus [5]): Active; Activity (Mus musculus [6]): 88.15%; Activity (Mus musculus [7]): 12.39%; Activity (Mus musculus [8]): 5.67 ×10⁹ /L; Activity (Mus musculus [9]): 4.59 cm; Activity (Mus musculus [10]): Active; Activity (Mus musculus [11]): 2.2 mm; Activity (Mus musculus [12]): Active; Activity (Mus musculus [13]): 50%; Activity [14]: Active; Activity (HCT-116 [17]): tde; Activity (HCT-116 [18]): tde; Activity [19]: Dose-dependent effect; Activity (Mus musculus [25]): Active
C[S+]([O-])CCCCN=C=S (stereo unspecified),,,8.35,5.52,2.7,,,18.1,
CC(C)(C)c1cc(O)ccc1O,,,1.5,1.04,,,,2.06,fold change (FC) [27]: 5.21; fold change (FC) [28]: 3.24
O=C(/C=C1\NCC2c3ccccc3CCN2C1=O)c1cccc(F)c1 (stereo unspecified),Dose-dependent effect,Dose-dependent effect,33,29.1,9.99,3.89,2.18,,
